Read-outs that look alike come from different tables or passages of the source.

From patent US6451361B1, “Alkali metal magnesium phosphate hydrate buffering feed mineral” (Agri-Nutrients Technology Group, Inc., priority 2001, dated 2002) come the findings set out here.

Data set [1] is described as follows: Buffer capacity by titration to pH 6 with 0.1N hydrochloric acid. Format: physicochemical. An excerpt:
(§1) The example compares performance of compositions of the instant invention with sodium bicarbonate, with regard to original pH, and amount of acid buffered to pH 6. One gram of buffering agent was mixed with 100 grams water and titrated to pH 6 by 0.1N hydrochloric acid.

In data set [2] the test system is rumen juices of a ruminant animal. The settings on record: steer, 50 lbs/day ration, three days on ration.
From the text: A ruminating steer weighing about 1100 pounds which had been fistulated so that rumen fluid samples could be withdrawn as desired for pH measurement was used in experiments in which the steer was fed a constant high energy ration typical of a finishing feedlot ration. The only change in the rations were in the types and amounts of buffering agent used. The buffering agents were blended into the feed ration prior to its use. The fistulated steer received the same buffered feed ration for three days prior to sampling the rumen fluid and determining pH.
The nature of data set [3]: pH of buffering agent in water. Format: physicochemical.
From the text: Materials frequently used in the art to buffer digestive fluids are sodium bicarbonate and magnesium oxide. […] Over-treatment with buffer may be caused by errors in estimates of animal size, and the composition of the digestive fluid and by errors in measuring the amounts of the buffering material.
as §1

The subject of data set [4] is newly hatched broiler chicks. In words: 21-day broiler chick feeding test of phosphorus bioavailability and weight gain. Format: in vivo. The settings on record: 21 days. As to the method:
The tests were conducted at a University Test Facility starting with newly hatched broiler chicks. The test was carried out over a 21-day period. Weight gain was measured in each group of 10 chicks. Also measured at the end of the test were weight gain/weight of feed, weight percent ash in the tibia, and the relative bioavailability.
Measurements were made comparing the results obtained with the test material and the Standard NRC technical grade hydrous dibasic calcium phosphate.

For `O=C([O-])O.[Na+]` [NaHCO3, sodium bicarbonate], the “Buffer Capacity m.eg. of HCl brought to pH per gram compound” value in data set [1] (1 gram in 100 grams water, titrated to pH 6 by 0.1N hydrochloric acid) is given as 10.0 m.eg. of HCl per gram compound. Moreover, the “speed of changes in pH when combined with aqueous acid” value in data set [1] (during titration with 0.1N hydrochloric acid) was “about instant”. Further, the “pH of Rumen Sample” value in data set [2] (buffer amount 0.5/1.00 lbs/%) is reported as 6.7; in data set [2] (buffer amount 0.8/1.60 lbs/%) it was 7.4. Besides, in data set [3], the “pH of Buffer 5% in H2O” value is on record as 9.0.
For the compound “hydrous dibasic calcium phosphate [Standard Phosphorus Source]”, in data set [4] (Added P in feed 0.15 Wt %), the “Ash Content of Tibia, Wt %” value was found to be 40.5 Wt %; the “Avg. Wt. Gain, Gms” value amounted to 639.6 Gms; the “Wt. Gain, gms per grm feed” value worked out at 0.688 gms per grm feed. Further, in data set [4] (Added P in feed 0.25 Wt %), the “Ash Content of Tibia, Wt %” value worked out at 41.5 Wt %; the “Avg. Wt. Gain, Gms” value came to 664.6 Gms; the “Wt. Gain, gms per grm feed” value amounted to 0.725 gms per grm feed. Further, in data set [4] (Added P in feed 0.35 Wt %), the “Ash Content of Tibia, Wt %” value was 42.5 Wt %; the “Avg. Wt. Gain, Gms” value came out at 667.7 Gms; the “Wt. Gain, gms per grm feed” value is reported as 0.722 gms per grm feed.
